From patent US10912774B2, “Pyrimidine FGFR4 inhibitors” (priority 2013, dated 2021)

Tested on: HEP3B tumor xenografts
Assay type: in vivo
[1] = Hep3B xenograft, 60 mg/kg orally twice daily

| Compound | efficacy compared with compound 108 [1] | tolerability (health of animals) [1] | efficacy compared with BGJ398 (Hep3B xenograft, 25, 37.5 or 50 mg/kg i.p. twice daily) |
| --- | --- | --- | --- |
| CCN1CCN(c2ccc(Nc3cc(N(C)C(=O)Nc4c(Cl)c(OC)cc(OC)c4Cl)ncn3)cc2)CC1 [BGJ398] | efficacy comparable to compound 108 | had to be terminated on Day 11 due to poor health of animals | – |
| C=CC(=O)Nc1cc(N2CCN(CC)CC2)ccc1Nc1cc(N(C)C(=O)Nc2c(Cl)c(OC)cc(OC)c2Cl)ncn1 [Compound 108, N-(2-(6-(3-(2,6-Dichloro-3,5-dimethoxyphenyl)-1-methylureido)pyrimidin-4-ylamino)-5-(4-ethylpiperazin-1-yl)-phenyl)acrylamide] | – | – | more efficacious than BGJ398 at tolerable dosage levels |
